The test system of one assay is Z138 cells. The assay is described as follows: MTT cell proliferation assay. The following applies: Homo sapiens, Z-138, approximately 64-72 hours. It is filed as cell-based. An outline of the steps: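 Cells seeded at 5,000-10,000 per well attached overnight, then received eight compound concentrations from 1 nM to 30 μM. Viability was measured by MTT (about 4 h) with OD read at 490 nm. Percent inhibition versus negative control, mostly from duplicates, was reported as mean±SE.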
In general terms: Tetrazolium assays rely on reduction of a dye to a coloured formazan, in cell work by metabolically active cells.

Another assay concerns MOLT 4 xenograft. The assay is described as follows: MOLT 4 acute lymphoblastic leukemia xenograft model. It is filed as in vivo, mouse. The note with it: 5 or 15 mg/kg PO daily, SCID mice, compared to vehicle. As to the method:
MOLT 4 (CRL-1582) acute lymphoblastic leukemia cells were obtained from ATCC. These cells were grown in RPMI-1640 medium supplemented with 10% fetal bovine serum, 1% penicillin and streptomycin. Cells were sub-cultured by transferring floating cells to a new flask and trypsinizing adherent cells before subculturing at a ratio of 1:4. MOLT 4 cells were harvested by centrifugation and counted using a hemocytometer. Cells were resuspended in PBS at a concentration of 5×10^7 cells per mL. Cells were placed on ice, and then mixed with an equal volume of Matrigel™ (BD Biosciences CB-40234). This mixture was kept on ice and injected into the left flank of mice in a volume of 0.2 mL, equivalent to 5×10^6 cells per mouse. Thirty-two (32) SCID mice were inoculated subcutaneously in the left flank with 5×10^6 MOLT 4 cells. Treatment was initiated when the tumors reached a mean volume of 106.5 mm^3 (standard deviation±33.9 mm^3, CV 31.9%, range 43-181 mm^3). Mice were allocated to four (4) groups of eight (8) mice, […], such that mean tumor volume in each group was within the range of 102 to 111 mm^3. […] With the exception of doxorubicin (which was given IP), all compounds were given by oral gavage. […] Animal weights and conditions were recorded daily, and tumors were measured on Mondays, Wednesdays and Fridays.

A further assay relates to AML-193. The assay is described as follows: MTT assay panel. The note with it: AML-193 cells, 72 hours. It counts as cell-based. The procedure:
(§1) Compound 124 was further tested against a panel of selected solid and hematological cancer cell lines and selected normal cell lines in an MTT assay. Briefly, the various cell lines above were plated at different densities on day 1. […] Cell Titer AQueous One was added to each well, and the plates were read in a plate reader at OD 495.

In a further assay the test system is AU-565. The assay is described as follows: MTT assay panel. It counts as cell-based. The following applies: Homo sapiens, AU565; AU-565 cells, 72 hours. The procedure: as §1
The subject of the next assay is Colo-201. The assay is described as follows: MTT assay panel. It is filed as cell-based. The note with it: Homo sapiens; Colo-201 cells, 72 hours. As to the method: as §1
The test system of the next assay is HCC-4006. The assay is described as follows: MTT assay panel. It counts as cell-based. The note with it: Homo sapiens, HCC4006; HCC-4006 cells, 72 hours. The procedure: as §1
For a further assay, the system named is HCC-827. Description: MTT assay panel. It counts as cell-based. The following applies: Homo sapiens, HCC827; HCC-827 cells, 72 hours. The procedure: as §1
The subject of a further assay is HT1080. The assay is described as follows: MTT assay panel. It counts as cell-based. The note with it: Homo sapiens, HT-1080; HT1080 cells, 72 hours. The procedure: as §1
In a further assay the test system is KG-1. The assay is described as follows: MTT assay panel. The note with it: Homo sapiens; KG-1 cells, 72 hours. It is filed as cell-based. As to the method: as §1
Another assay has as its system LN18. Description: MTT assay panel. It is filed as cell-based. The following applies: Homo sapiens, LN-18; LN18 cells, 72 hours. The procedure: as §1
The next assay concerns MHCC97H. The assay is described as follows: MTT assay panel. The following applies: Homo sapiens; MHCC97H cells, 72 hours. It counts as cell-based. As to the method:
as §1

The subject of another assay is MSTO-211H. Description: MTT assay panel. It counts as cell-based. The following applies: Homo sapiens; MSTO-211H cells, 72 hours. As to the method:
as §1

The subject of a further assay is NCI-H1993. Description: MTT assay panel. The note with it: Homo sapiens; NCI-H1993 cells, 72 hours. It counts as cell-based. As to the method:
as §1

For the next assay, the system named is NCI-H2030. The assay is described as follows: MTT assay panel. It counts as cell-based. The following applies: Homo sapiens; NCI-H2030 cells, 72 hours. As to the method:
as §1

The subject of a further assay is NCI-H2122. Description: MTT assay panel. It is filed as cell-based. The following applies: Homo sapiens; NCI-H2122 cells, 72 hours. As to the method: as §1
A further assay relates to PATU-8902. Description: MTT assay panel. It is filed as cell-based. The note with it: PATU-8902 cells, 72 hours. The procedure: as §1
A further assay has as its system RKO. The assay is described as follows: MTT assay panel. It counts as cell-based. The note with it: Homo sapiens; RKO cells, 72 hours. The procedure:
as §1

The next assay has as its system SHSY5Y. The assay is described as follows: MTT assay panel. It is filed as cell-based. The following applies: Homo sapiens, SH-SY5Y; SHSY5Y cells, 72 hours. The procedure:
as §1

For a further assay, the system named is SK-CO-1. Description: MTT assay panel. It counts as cell-based. The note with it: Homo sapiens; SK-CO-1 cells, 72 hours. The procedure:
as §1

In another assay the test system is SW-480. Description: MTT assay panel. It counts as cell-based. The note with it: Homo sapiens, SW480; SW-480 cells, 72 hours. The procedure:
as §1

A further assay has as its system SW-900. The assay is described as follows: MTT assay panel. It is filed as cell-based. The note with it: Homo sapiens, SW900; SW-900 cells, 72 hours. As to the method: as §1
Another assay relates to SW-948. Description: MTT assay panel. It is filed as cell-based. The following applies: Homo sapiens, SW948; SW-948 cells, 72 hours. As to the method:
as §1

A further assay deals with Tera-1. The assay is described as follows: MTT assay panel. It counts as cell-based. The note with it: Tera-1 cells, 72 hours. As to the method: as §1

Structures are written as SMILES. A value given as a limit tells only on which side of the number the result lay.

Consider `NC(=O)/C(=C/n1cnc(-c2cc(C(F)(F)F)cc(C(F)(F)F)c2)n1)c1cncnc1` [Compound 124, (E)-3-(3-(3,5-bis(trifluoromethyl)phenyl)-1H-1,2,4-triazol-1-yl)-2-(pyrimidin-5-yl)acrylamide], for which the 50% inhibitory concentration (IC50) is < 0.1 µM in the assay on Z138 cells; 1.93 µM in the assay with AML-193; 0.49 µM in the assay with AU-565; > 10 µM in the assay on Colo-201; 0.02 µM in the assay with HCC-4006; 0.46 µM with HCC-827. Further, the 50% inhibitory concentration (IC50) in the assay with HT1080 was 0.31 µM; with KG-1 it was 0.09 µM; with LN18, 2.06 µM; in the assay with MHCC97H, > 10 µM; in the assay with MSTO-211H it was 0.07 µM; in the assay on NCI-H1993, > 10 µM. Also, the IC50 was determined as 2.05 µM with NCI-H2030; 0.84 µM in the assay on NCI-H2122; 0.41 µM in the assay with PATU-8902; 0.45 µM in the assay with RKO; 0.05 µM in the assay on SHSY5Y; 0.43 µM in the assay on SK-CO-1. Besides, the concentration for half-maximal inhibition (IC50) is 10 µM with SW-480, 1.85 µM with SW-900, > 10 µM in the assay with SW-948 and 0.15 µM in the assay with Tera-1. The mean tumor volume result with MOLT 4 xenograft is given as “mean tumor volume was reduced”.

The term IC50 denotes the concentration at which inhibition is half-maximal. Lower therefore signals greater potency in that assay.

These data come from patent US11945794B2, “Nuclear transport modulators and uses thereof” (Karyopharm Therapeutics Inc., priority 2013, dated 2024).
